Values of other authors, collected in patent US20240424053A1, “METHODS AND COMPOSITIONS FOR PROVIDING MYOCARDIAL PROTECTION AND TREATING MYOCARDIAL STRESS AND FIBROSIS” (Tufts Medical Center, Inc., priority 2021, published 2024).

Biological target: T1, Xa (Homo sapiens, UniProt P00742)
T1 construct: host or cells: HF patients
Details: in vivo; cited from earlier work

T1 sequence (P00742 235-488 limits assumed): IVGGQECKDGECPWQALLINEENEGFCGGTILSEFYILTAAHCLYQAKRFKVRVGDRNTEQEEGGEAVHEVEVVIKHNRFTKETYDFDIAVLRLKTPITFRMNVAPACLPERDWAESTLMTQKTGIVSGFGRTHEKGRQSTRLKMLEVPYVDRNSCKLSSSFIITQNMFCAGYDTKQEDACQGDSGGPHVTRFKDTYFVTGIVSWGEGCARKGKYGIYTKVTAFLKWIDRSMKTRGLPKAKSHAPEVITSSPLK
T1 sequence (P00742 41-179 partner limits assumed): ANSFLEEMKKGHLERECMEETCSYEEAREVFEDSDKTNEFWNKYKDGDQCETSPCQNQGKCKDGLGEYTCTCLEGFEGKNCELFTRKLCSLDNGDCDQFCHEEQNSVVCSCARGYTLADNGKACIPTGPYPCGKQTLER

SMILES: O=C(NC[C@H]1CN(c2ccc(N3CCOCC3=O)cc2)C(=O)O1)c1ccc(Cl)s1 [rivaroxaban]
- clinical benefit in HF patients: no clear benefit
